US20120015907A1, “Furopyridine compounds and uses thereof” (NOVARTIS AG, priority 2010, published 2012)
“And” between values parts separate entries of the source, which are not always exact repeats. Equal values may be shown once. Read-outs that look alike come from different tables or passages of the source.

Target: T1, HCV polymerase (Hepatitis C virus genotype 1b, UniProt Q9WMX2)
T1 construct: (His)6 (C)
Experiment: biochemical
Details: polymerase assay of Biological Example 1

SMILES | IC50 (read-out: NS5B polymerase IC50) | IC50 (NS5B polymerase IC50 μM)
CNC(=O)c1c(-c2ccc(F)cc2)oc2nc(N(C)S(C)(=O)=O)c(C(C)(F)F)cc12 [Example 8, 5-(1,1-difluoroethyl)-2-(4-fluorophenyl)-N-methyl-6-(N-methylmethylsulfonamido)furo[2,3-b]pyridine-3-carboxamide] | 0.125 µM | –
CCc1ccc(-c2oc3nc(N(CCCC4(C(=O)O)CCC4)S(C)(=O)=O)c(C4CC4)cc3c2C(=O)NC)cc1 [Example 29.91, 1-(3-(N-(5-cyclopropyl-2-(4-ethylphenyl)-3-(methylcarbamoyl)furo[2,3-b]pyridin-6-yl)methylsulfonamido)propyl) cyclobutanecarboxylic acid] | 0.002 µM | –
CNC(=O)c1c(-c2ccc(F)cc2)oc2nc(N(CCC(O)CO)S(C)(=O)=O)c(I)cc12 (stereo not drawn) [Example 18.94, 6-(N-(3,4-dihyroxybutyl)methylsulfonamido)-2-(4-fluorophenyl)-5-iodo-N-methylfuro[2,3-b]pyridine-3-carboxamide] | 0.243 µM | –
CNC(=O)c1c(-c2ccc(F)cc2)oc2nc3c(cc12)C(C)CCN3S(C)(=O)=O (stereo not drawn) [Example 36.6, 2-(4-fluorophenyl)-N,5-dimethyl-8-(methylsulfonyl)-5,6,7,8-tetrahydrofuro[2,3-b][1,8]naphthyridine-3-carboxamide] | 0.231 µM | –
CCc1cc2c(C(=O)NC)c(-c3ccc(F)cc3)oc2nc1N(CCCC1=C(O)CCC1=O)S(C)(=O)=O [Example 23.95, 5-ethyl-2-(4-fluorophenyl)-6-(N-(3-(2-hydroxy-5-oxocyclopent-1-enyl)propyl)methylsulfonamido)-N-methylfuro[2,3-b]pyridine-3-carboxamide] | 0.029 µM | –
CCOP(C)(=O)CCCN(c1nc2oc(-c3ccc(C)cc3)c(C(=O)NC)c2cc1C1CC1)S(C)(=O)=O (stereo not drawn) [Example 23.99992, ethyl 3-(N-(5-cyclopropyl-3-(methylcarbamoyl)-2-p-tolylfuro[2,3-b]pyridin-6-yl)methylsulfonamido)propyl (methyl)phosphinate] | – | 0.007 µM
CNC(=O)c1c(-c2ccc(C)cc2)oc2nc(N(CCCC3(C(=O)O)CCN(C(=O)C(C)(C)C)CC3)S(C)(=O)=O)c(C3CC3)cc12 [Example 29.999992, 4-(3-(N-(5-cyclopropyl-3-(methylcarbamoyl)-2-p-tolylfuro[2,3-b]pyridin-6-yl)methylsulfonamido)propyl)-1-pivaloylpiperidine-4-carboxylic acid] | 0.007 µM | –
CNC(=O)c1c(-c2ccc(F)cc2)oc2nc(N(C)S(C)(=O)=O)c(CCCS(C)(=O)=O)cc12 [Example 4.94, 2-(4-fluorophenyl)-N-methyl-6-(N-methylmethylsulfonamido)-5-(3-(methylsulfonyl)propyl)furo[2,3-b]pyridine-3-carboxamide] | 0.208 µM | –
CNC(=O)c1c(-c2ccc(F)cc2)oc2nc(N(CCCn3ccnc3)S(C)(=O)=O)c(I)cc12 [Example 23.5, 6-(N-(3-(1H-imidazol-1-yl)propyl)methylsulfonamido)-2-(4-fluorophenyl)-5-iodo-N-methylfuro[2,3-b]pyridine-3-carboxamide] | 0.151 µM and 0.035 µM | –
CCc1cc2c(C(=O)NC)c(-c3ccc(F)cc3)oc2nc1N(CCCOc1ccccc1C#N)S(C)(=O)=O [Example 21.5, 6-(N-(3-(2-cyanophenoxy)propyl)methylsulfonamido)-5-ethyl-2-(4-fluorophenyl)-N-methylfuro[2,3-b]pyridine-3-carboxamide] | 0.191 µM | –
CNC(=O)c1c(-c2ccc(F)cc2)oc2nc3c(cc12)C(C)CCCCCN3S(C)(=O)=O (stereo not drawn) [Example 37, 2-(4-Fluoro-phenyl)-11-methanesulfonyl-5-methyl-6,7,8,9,10,11-hexahydro-5H-1-oxa-11,12-diaza-cyclonona[f]indene-3-carboxylic acid methylamide] | 0.048 µM | –
CNC(=O)c1c(-c2ccc(C)cc2)oc2nc(N(CCCC(CC(=O)O)OC)S(C)(=O)=O)c(C3CC3)cc12 (stereo not drawn) [Example 29.999994, 6-(N-(5-cyclopropyl-3-(methylcarbamoyl)-2-p-tolylfuro[2,3-b]pyridin-6-yl)methylsulfonamido)-3-methoxyhexanoic acid] | 0.003 µM | –
CCc1cc2c(C(=O)NC)c(-c3ccc(F)cc3)oc2nc1N(CCN1CCN(C(=O)OC(C)(C)C)CC1)S(C)(=O)=O [Example 21.998, tert-butyl 4-(2-(N-(5-ethyl-2-(4-fluorophenyl)-3-(methylcarbamoyl)furo[2,3-b]pyridin-6-yl)methylsulfonamido)ethyl)piperazine-1-carboxylate] | 0.428 µM | –
CCOC(=O)/C=C/CCCN(c1nc2oc(-c3ccc(C)cc3)c(C(=O)NC)c2cc1C1CC1)S(C)(=O)=O [Example 44.1, (E)-ethyl 6-(N-(5-cyclopropyl-3-(methylcarbamoyl)-2-p-tolylfuro[2,3-b]pyridin-6-yl)methylsulfonamido)hex-2-enoate] | 0.005 µM | –
CCc1cc2c(C(=O)NC)c(-c3ccc(F)cc3)oc2nc1N(CC1CCOCC1)S(C)(=O)=O [Example 21.994, 5-ethyl-2-(4-fluorophenyl)-N-methyl-6-(N-((tetrahydro-2H-pyran-4-yl)methyl)methylsulfonamido)furo[2,3-b]pyridine-3-carboxamide] | 0.147 µM | –
CNC(=O)c1c(-c2ccc(C)cc2)oc2nc(N(CCCNCCCC(=O)O)S(C)(=O)=O)c(C3CC3)cc12 [Example 23.999996, 4-(3-(N-(5-cyclopropyl-3-(methylcarbamoyl)-2-p-tolylfuro[2,3-b]pyridin-6-yl)methylsulfonamido)propylamino)butanoic acid] | 0.016 µM | –
CNC(=O)c1c(-c2ccc(C)cc2)oc2nc(N(CCCCO)S(C)(=O)=O)c(C3CC3)cc12 [Example 23.99994, 5-cyclopropyl-6-(N-(4-hydroxybutyl)methylsulfonamido)-N-methyl-2-p-tolylfuro[2,3-b]pyridine-3-carboxamide] | 0.003 µM | –
CNC(=O)c1c(-c2ccc(C)cc2)oc2nc(N(CCCCCO)S(C)(=O)=O)c(C3CC3)cc12 [Example 23.99996, 5-cyclopropyl-6-(N-(5-hydroxypentyl)methylsulfon amido)-N-methyl-2-p-tolylfuro[2,3-b]pyridine-3-carboxamide] | 0.002 µM | –
CNC(=O)c1c(-c2ccc(C)cc2)oc2nc(N(C)S(C)(=O)=O)c(CC(O)CO)cc12 (stereo not drawn) [Example 9.1, 5-(2,3-dihydroxypropyl)-N-methyl-6-(N-methylmethylsulfonamido)-2-p-tolylfuro[2,3-b]pyridine-3-carboxamide] | 0.117 µM | –
CNC(=O)c1c(-c2ccccc2)oc2nc(N(C)S(C)(=O)=O)c(C3CC3)cc12 [Example 2.8, 5-cyclopropyl-N-methyl-6-(N-methylmethylsulfonamido)-2-phenylfuro[2,3-b]pyridine-3-carboxamide] | 0.03 µM | –
CNC(=O)c1c(-c2ccc(C)cc2)oc2nc(N(CCCC3(C(=O)O)CCOCC3)S(C)(=O)=O)c(C3CC3)cc12 [Example 28.4, 4-(3-(N-(5-cyclopropyl-3-(methylcarbamoyl)-2-p-tolylfuro[2,3-b]pyridin-6-yl)methylsulfonamido)propyl)tetrahydro-2H-pyran-4-carboxylic acid] | 0.003 µM | –
CCOP(C)(=O)CCCCN(c1nc2oc(-c3ccc(C)cc3)c(C(=O)NC)c2cc1C1CC1)S(C)(=O)=O (stereo not drawn) [Example 23.99993, ethyl 4-(N-(5-cyclopropyl-3-(methylcarbamoyl)-2-p-tolylfuro[2,3-b]pyridin-6-yl)methylsulfonamido)butyl (methyl)phosphinate] | – | 0.011 µM
CNC(=O)c1c(-c2ccc(F)cc2)oc2nc(N(C)S(C)(=O)=O)c(CCC#N)cc12 [Example 14, 5-(2-cyanoethyl)-2-(4-fluorophenyl)-N-methyl-6-(N-methylmethylsulfonamido)furo[2,3-b]pyridine-3-carboxamide] | 0.147 µM | –
CCc1cc2c(C(=O)NC)c(-c3ccc(F)cc3)oc2nc1N(CCCS(=O)(=O)CC)S(C)(=O)=O [Example 23.992, 5-ethyl-6-(N-(3-(ethylsulfonyl)propyl)methylsulfonamido)-2-(4-fluorophenyl)-N-methylfuro[2,3-b] pyridine-3-carboxamide] | 0.067 µM | –
CNC(=O)c1c(-c2ccc(F)cc2)oc2nc(N(C)S(C)(=O)=O)c(CCCC(N)=O)cc12 [Example 4.3, 5-(4-amino-4-oxobutyl)-2-(4-fluorophenyl)-N-methyl-6-(N-methylmethylsulfonamido)furo[2,3-b]pyridine-3-carboxamide] | 0.132 µM | –
CCc1cc2c(C(=O)NC)c(-c3ccc(F)cc3)oc2nc1N(CCCCC1=C(O)CCC1=O)S(C)(=O)=O [Example 23.94, 5-ethyl-2-(4-fluorophenyl)-6-(N-(4-(2-hydroxy-5-oxocyclopent-1-enyl)butyl)methylsulfonamido)-N-methylfuro[2,3-b]pyridine-3-carboxamide] | 0.044 µM | –
CNC(=O)c1c(-c2ccc(C)cc2)oc2nc(N(CCC[C@H](C)C(=O)OCOP(=O)(OCc3ccccc3)OCc3ccccc3)S(C)(=O)=O)c(C3CC3)cc12 [Example 49.1, (S)-((bis(benzyloxy)phosphoryl)oxy)methyl 5-(N-(5-cyclopropyl-3-(methylcarbamoyl)-2-(p-tolyl)furo[2,3-b]pyridin-6-yl)methylsulfonamido)-2-methylpentanoate] | 0.006 µM | –
CNC(=O)c1c(-c2ccc(C)cc2)oc2nc(N(CCCCN)S(C)(=O)=O)c(C3CC3)cc12 [Example 23.999993, 6-(N-(4-aminobutyl)methylsulfonamido)-5-cyclopropyl-N-methyl-2-p-tolylfuro[2,3-b]pyridine-3-carboxamide] | 0.016 µM | –
CNC(=O)c1c(-c2ccc(F)cc2)oc2nc(N(CCO)S(C)(=O)=O)c(I)cc12 [Example 18.1, 2-(4-fluorophenyl)-6-(N-(2-hydroxyethyl)methylsulfonamido)-5-iodo-N-methylfuro[2,3-b]pyridine-3-carboxamide] | 0.451 µM | –
CNC(=O)c1c(-c2ccc(C)c(F)c2)oc2nc(N(CCCCC(=O)O)S(C)(=O)=O)c(C3CC3)cc12 [Example 29.999999, 5-(N-(5-cyclopropyl-2-(3-fluoro-4-methylphenyl)-3-(methylcarbamoyl)furo[2,3-b]pyridin-6-yl)methylsulfonamido) pentanoic acid] | 0.002 µM | –
